Experiments:
[1] = test system: DOI induced phase delay in melatonin production; assay: Effects of serotonin antagonists on the melatonin response to DOI; format: in vivo, rat; conditions: antagonist 0.07 μmole/kg 30 minutes prior to DOI (1.4 μmole/kg) at CT18
Procedure: (§1) Male albino wistar rats (100 g, n=5-10) were housed in metabolism cages in lightproof environment chambers in 12 hours of light followed by 12 hours of darkness, designated 12L:12D. After 3-4 days acclimation to a liquid diet (Osmolite HN) hourly urine collections commenced. The general experimental design was:
(§2) Melatonin production was monitored by the urinary excretion of 6-sulphatoxymelatonin (aMT.6S), determined by radioimmunoassay. The time of onset of metabolite excretion was defined as the time of day that the excretion rate exceeded 20 pmol/h.
The effects of the serotonin antagonists ritanserin and ketanserin on the melatonin response to DOI was determined. Both drugs were administered in doses of 0.7, 0.28 and 0.07 μmole/kg, 30 minutes prior to DOI (1.4 μmole/kg; 0.5 mg/kg) at CT 18; In addition, ritanserin (6.3 μmole/kg) and ketanserin (18 μmole/kg) were administered 30 minutes prior to saline injection at CT 18. Both antagonists were dissolved in DMSO and injected in a volume of 200 μl.

[2] = test system: DOI induced c-Fos in the rat SCN; assay: Effects of antagonists on DOI induced c-Fos in the SCN; format: in vivo
Procedure: As a check on the specificity of the response (SCN versus direct pineal effects) experiments were also conducted to monitor c-Fos induction in the SCN in response to the treatments. Animals were sacrificed by decapitation 2 hours after treatments. Brains were removed immediately and fixed by immersion in a 4% solution of paraformaldehyde in 0.1 M buffer (pH 7.4) at room temperature. After approximately 30 hours in the fixative solution at room temperature, the brains were briefly rinsed in phosphate buffered saline (PBS) and 70 μm coronal sections were obtained on a microtome. Free floating sections were permeabilised in a 0.3% solution of Triton X-100 in PBS at 4° C. overnight. […] The immunopositive cells were quantified using a computerised image analysis system.
To determine the effects of the antagonists on c-Fos induction in the SCN, ritanserin and ketanserin were injected in doses of 1.4, 0.7 and 0.14 μmole/kg at ZT 17.5. […] The response to ritanserin (6.3 μmole/kg) and ketanserin (18 μmole/kg) administered 30 minutes prior to saline injection at CT 18 was also determined.

[3] = test system: light pulse induced phase delay in aMT.6S onset; assay: Effect of serotonin antagonists on the melatonin response to a light pulse; format: in vivo, rat; conditions: metergoline 15 mg/kg or ritanserin 3 mg/kg at CT17.5, light 2 lux/1 minute at CT18
Procedure: Male albino wistar rats (100 g, n=5-10) were housed in metabolism cages in lightproof environment chambers in 12 hours of light followed by 12 hours of darkness, designated 12L:12D. After 3-4 days acclimation to a liquid diet (Osmolite HN) hourly urine collections commenced. The general experimental design was: Melatonin production was monitored by the urinary excretion of 6-sulphatoxymelatonin (aMT.6S), determined by radioimmunoassay. The time of onset of metabolite excretion was defined as the time of day that the excretion rate exceeded 20 pmol/h. To determine the effects of the serotonin antagonist, metergoline (15 mg/kg), ritanserin (3 mg/kg) and LY-53,857 (3 mg/kg) on the melatonin response to a light pulse, the drugs were administered at CT17.5. At CT18, a 2 lux light pulse was given for one minute. Using similar methodology the effects on c-fos induction in the SCN were determined.

[4] = test system: melatonin production (urinary aMT.6S excretion); assay: 6-Sulphatoxymelatonin rhythmicity after agonist administration at CT18; format: in vivo, rat; conditions: DOI 0.5 mg/kg (1.4 μmole/kg) at CT18, rats in continuous darkness
Procedure: as §1
Night 1: Control collection-lights remained off from lights out for the remainder of the experiment.
Night 2: Drug administration or light pulses administered at CT 18, i.e., 6 hours after the subjective lights out. Urine collections were maintained throughout the subjective night.
Nights 3 & 4: Urine collections continued to determine any entraining effects of the stimuli.
as §2
Two lighting conditions were used to investigate the effects of drugs on SCN/pineal gland function; animals held in a light: dark cycle (L:D; Type VI method of Aschoff) and animals acutely transferred to continuous darkness (DD; Type II method of Aschoff) [Aschoff J. Response curves in circadian periodicity. In Aschoff J., ed. Circadian Clocks. Amsterdam: North Holland Publishing, 1965:95-111]. […]

[5] = test system: core body temperature rhythm; assay: Core body temperature rhythm studies; format: in vivo, rat; conditions: DOI 0.5 mg/kg subcutaneously at CT18, rats
Procedure: Groups of 5 rats were implanted with temperature transmitters under 3% halothane/oxygen anaesthesia and kept in individual cages on a 12L: 12D photoperiod. Five days after implanting the transmitters, the lights were turned off at the normal time (ZT12) and remained off for 5 days. The animals were injected subcutaneously with either DOI (0.5 mg/kg) or saline vehicle at CT18 (ie 30 hours after last lights off). The temperature was sampled at 10 minute intervals. Five days after the drug treatment the animals were re-entrained to the LD cycle for 8 days and either exposed to a 5 minute/20 lux light pulse 30 hours after re-initiation of constant darkness or left untreated. To determine any delays in the temperature rhythm, the time of the day that the temperature dropped below the group daily mean (37.4° C.) was calculated and the mean delay±SEM determined.

5-HT2c receptors = target: T1, 5-HT2c receptors (Homo sapiens, UniProt P28335); conditions: ritanserin versus ketanserin, stated as known; cited from earlier work
T1 sequence (P28335 33-458): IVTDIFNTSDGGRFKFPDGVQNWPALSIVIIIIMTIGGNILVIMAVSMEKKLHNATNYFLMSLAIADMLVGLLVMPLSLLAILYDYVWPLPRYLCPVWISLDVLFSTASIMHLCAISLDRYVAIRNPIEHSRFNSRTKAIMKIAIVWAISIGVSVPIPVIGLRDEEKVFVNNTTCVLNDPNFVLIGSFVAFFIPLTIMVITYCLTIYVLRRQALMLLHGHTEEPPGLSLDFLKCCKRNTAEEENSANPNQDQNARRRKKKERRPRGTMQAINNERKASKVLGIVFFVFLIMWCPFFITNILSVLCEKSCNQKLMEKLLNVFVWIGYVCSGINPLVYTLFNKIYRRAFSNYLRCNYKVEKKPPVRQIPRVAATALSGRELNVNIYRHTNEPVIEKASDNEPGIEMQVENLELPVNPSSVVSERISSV

O=C(c1ccc(F)cc1)C1CCN(CCn2c(=O)[nH]c3ccccc3c2=O)CC1 [ketanserin]
effect on DOI induced phase delay in melatonin production [1]: ineffective
number of cells positive for c-Fos per unilateral SCN after DOI ([2]; antagonist 0.7 μmole/kg 30 minutes before DOI (1.4 μmole/kg)): significantly greater (P<0.05) than those observed following ritanserin 0.7 μmole/kg but not significantly different from the vehicle control

CN1C[C@H](CNC(=O)OCc2ccccc2)C[C@@H]2c3cccc4c3c(cn4C)C[C@H]21 [metergoline]
block of the phase delay in aMT.6S onset induced by the light pulse [3]: failure of the antagonists to block the phase delay

COc1cc(CC(C)N)c(OC)cc1I (racemic) [DOI, (+/−)-1-(4-iodo-2,5-dimethoxy-phenyl)-2-aminopropane]
melatonin metabolite (aMT.6S) excretion immediately following injection [4]: acute decrease
morning decline in body temperature [5]: significantly delayed

Cc1nc2sccn2c(=O)c1CCN1CCC(=C(c2ccc(F)cc2)c2ccc(F)cc2)CC1 [ritanserin]
affinity for 5-HT2c receptors relative to ketanserin (5-HT2c receptors): 10 fold
effect on DOI induced phase delay in melatonin production [1]: inhibits
inhibition of the increase in appearance of c-Fos caused by a 5-HT2c high affinity compound ([2]; comparison of ritanserin with ketanserin pre-treatment): greater effect than ketanserin
block of the phase delay in aMT.6S onset induced by the light pulse [3]: failure of the antagonists to block the phase delay

From patent publication US6403651B1, “Mediation of circadian rhythms” (Luminis Pty Limited, priority 1997, dated 2002)
